Laboratory results as given in ChEMBL document CHEMBL1125467, “Structure-activity relationship in the gastric cytoprotective effect of several sesquiterpene lactones” (1992).

Tested on: Rattus norvegicus
Experiment: Cytoprotective effect at an oral dose of 40 mg/kg
Format: functional
Parameters: unit not given here

Row | SMILES | Cytoprotective effect
1 | C=C1C(=O)OC2/C=C(\C)C[C@@H]3C=C(CC(OC(=O)C(C)CC)[C@@H]12)C(=O)O3 (some centres not stated) | 4
2 | C=C1C(=O)O[C@@H]2C[C@@H](C)C3=CCC(=O)[C@@]3(C)[C@@H](OC(C)=O)[C@H]12 | 0.9
3 | CC1C(=O)O[C@@H]2[C@H]1CC[C@H](C)[C@@]1(O)C=CC(=O)[C@@]21C (some centres not stated) | 4
4 | C[C@@H]1C[C@H]2OC(=O)[C@H](C)[C@H]2[C@H](O)[C@]2(C)C(=O)C=CC12 (some centres not stated) | 0.66
5 | C=C1C(=O)O[C@@H]2C[C@@H](C)C3C=CC(=O)[C@@]3(C)[C@@H](OC(=O)CNC(=O)C(F)(F)F)[C@H]12 (some centres not stated) | 0.95
6 | C=C1C(=O)O[C@@H]2C[C@@H](C)C3C=CC(=O)[C@@]3(C)[C@@H](OC(C)=O)[C@H]12 (some centres not stated) | 1
7 | C=C1C(=O)O[C@@H]2C[C@@H](C)C3CCC(=O)[C@@]3(C)[C@@H](O)[C@H]12 (some centres not stated) | 1
8 | CC1=CC(=O)C2C(C)CC[C@H]3[C@H](C)C(=O)O[C@@H]3[C@]12C (some centres not stated) | 3.5
9 | C=C1C(=O)O[C@@H]2C[C@@H](C)C3C=CC(=O)[C@@]3(C)[C@@H](OC(=O)CN)[C@H]12 (some centres not stated) | 0.85
10 | C=C1C(=O)O[C@@H]2[C@H]3C(C)=CC(=O)C3=C(C)CC[C@@H]12 [DEHYDROLEUCODIN] | 0.25
11 | C=C1C(=O)O[C@@H]2C[C@@H](C)C3CCC(C)=C3[C@@H](O)[C@H]12 (some centres not stated) [GUAIANOLIDE] | 0.7
12 | C=C1C(=O)O[C@@H]2C[C@@H](C)[C@@H]3C=CC(=O)[C@@]3(C)[C@@H](O)[C@H]12 [HELENALIN] | 0.33
13 | C=C1C(=O)O[C@@H]2[C@H]1CC[C@H](C)[C@@]1(O)C=CC(=O)[C@@]21C [HYMENIN] | 0.25
14 | C=C1C(=O)O[C@H]2[C@H]1CCC(C)=C1C[C@H]3O[C@@]3(C)[C@@H]12 [LUDARTIN] | 0.5
15 | C=C1C(=O)O[C@H]2C[C@@H](C)[C@@H]3C=CC(=O)[C@@]3(C)[C@H](O)[C@H]12 [MEXICANIN I] | 0.25

Tested on: Rattus norvegicus
Experiment: Compound was evaluated for the cytoprotective effect at an oral dose of 40 mg/kg in rat
Format: functional

Row | SMILES | Cytoprotective effect
16 | C[C@@H]1C[C@H]2OC(=O)[C@H](C)[C@H]2[C@H](O)[C@]2(C)C(=O)CCC12 (some centres not stated) | 3.7
17 | CC1C(=O)O[C@@H]2[C@H]1CC[C@H](C)[C@@]1(O)CCC(=O)[C@@]21C (some centres not stated) | 4.5
